{
  "source": "patent US7691890B2",
  "about": "“Anti-viral uses of leflunomide products” (priority 1998, dated 2010)",
  "key": {"[1]": {"settings": "cited from earlier work"}, "[2]": {"system": "Influenza A (H3N2)", "assay": "CPE inhibition test", "assay_type": "cell-based", "settings": "for CPE Inhibition test SI: Influenza A (H3N2), IC50 divided by EC50; for EC50: Influenza A virus, H3N2, MDCK, read-out: CPE Inhibition test EC50"}, "[3]": {"system": "Rhinovirus Type 5", "assay": "Neutral red uptake test", "assay_type": "cell-based", "settings": "IC50 divided by EC50"}, "[4]": {"system": "Rhinovirus Type 5", "assay_type": "cell-based", "settings": "IC50 divided by EC50"}, "[5]": {"system": "Influenza B", "assay": "Neutral red uptake test", "settings": "IC50 divided by EC50"}, "[6]": {"system": "Influenza B", "assay": "CPE inhibition test", "assay_type": "cell-based", "settings": "for EC50: Influenza B virus, MDCK, read-out: CPE Inhibition test EC50; for CPE Inhibition test SI: Influenza B, IC50 divided by EC50"}, "[7]": {"system": "Measles Virus", "assay": "microbe, parasite or virus in culture", "assay_type": "cell-based, Measles virus (Chicago strain)", "settings": "for CPE Inhibition test SI: IC50 divided by EC50"}, "[8]": {"system": "Measles Virus", "assay": "microbe, parasite or virus in culture", "assay_type": "cell-based, Measles virus (Chicago strain)", "settings": "for Neutral Red Uptake test SI: IC50 divided by EC50"}, "[9]": {"system": "hepatitis B virus (HBV)", "assay": "microbe, parasite or virus in culture", "assay_type": "cell-based", "settings": "for EC50 / EC90: Hepatitis B virus, 216 h; for EC90: HBV DNA, 9 day treatment"}, "[10]": {"assay": "Toxicity to 2.2.15 cells by neutral red dye uptake", "assay_type": "cell-based", "settings": "human, 2.2.15 human liver cells", "description": "Toxicity of test compounds to cultures of 2.2.15 cells was also determined as follows. Four concentrations of each compound were assayed and compared to untreated control cultures. Toxicity was determined by the uptake of neutral red dye, as determined by absorbance at 510 nm relative to untreated cells."}, "[11]": {"system": "Adenovirus Type 1", "assay": "CPE inhibition test", "assay_type": "cell-based, Adenovirus type 1 (65089/Chicago)", "settings": "IC50 divided by EC50"}, "[12]": {"system": "Adenovirus Type 1", "assay": "Neutral red uptake test", "assay_type": "cell-based, Adenovirus type 1 (65089/Chicago)", "settings": "IC50 divided by EC50"}, "[13]": {"system": "Parainfluenza Type 3 Virus", "assay": "organism not typed", "assay_type": "cell-based, parainfluenza type 3 virus (14702)", "settings": "for CPE Inhibition test SI: IC50 divided by EC50"}, "[14]": {"system": "Parainfluenza Type 3 Virus", "assay": "organism not typed", "assay_type": "cell-based, parainfluenza type 3 virus (14702)", "settings": "for Neutral Red Uptake test SI: IC50 divided by EC50"}, "[15]": {"system": "Influenza A (H1N1)", "assay": "Neutral red uptake test", "settings": "IC50 divided by EC50"}, "[16]": {"system": "Influenza A (H1N1)", "assay": "CPE inhibition test", "assay_type": "cell-based", "settings": "for CPE Inhibition test SI: Influenza A (H1N1), IC50 divided by EC50; for EC50: Influenza A virus, H1N1, MDCK, read-out: CPE Inhibition test EC50"}, "[17]": {"system": "Respiratory Syncytial Virus A", "assay": "microbe, parasite or virus in culture", "assay_type": "cell-based, Respiratory syncytial virus (RSV) (A2)", "settings": "for CPE Inhibition test SI: IC50 divided by EC50"}, "[18]": {"system": "Influenza A (H3N2)", "assay": "Neutral red uptake test", "settings": "IC50 divided by EC50"}, "[19]": {"system": "Respiratory Syncytial Virus A", "assay": "microbe, parasite or virus in culture", "assay_type": "cell-based, Respiratory syncytial virus (RSV) (A2)", "settings": "for Neutral Red Uptake test SI: IC50 divided by EC50"}, "[20]": {"system": "CMV DNA polymerase", "assay_type": "biochemical", "settings": "extracts of VHL/E-infected HUVEC or P8-infected HFF, various concentrations"}, "[21]": {"system": "CMV DNA", "assay": "Dot blot quantitation of viral DNA in CMV-infected cells", "assay_type": "cell-based", "settings": "CMV P8-infected HFF, 48 hours, 100 μM A771726 or 1 mM PFA; identical results in HUVEC (200 μM)", "description": "All experiments included infected cultures incubated in the presence of 1 mM PFA as well as uninfected controls. 48 hours post-inoculation cells were harvested by trypsin digestion, washed in PBS, and incubated for 12 hours at 50° C. in 0.1 mg/ml proteinase K (Sigma) in digestion buffer (100 mM NaCl, 10 mM Tris-HCl, 25 mM EDTA, 0.5% SDS). DNA was extracted in phenol/chloroform, precipitated with ammonium acetate/ethanol, and resuspended in TE buffer. Following equalization of concentrations, extracted DNA was serially diluted in 96-well microtiter plates and 0.4 M NaOH/10 mM EDTA was added to each well. DNA was denatured in sealed plates by heating for 10 minutes in a 100° C. waterbath, transferred to nylon membranes (Hybond N, Amersham) using a vacuum dotblot manifold (Bio-Rad Laboratories, Hercules, Calif.), and immobilized by UV cross-linking. The cDNA probe was generated by HindIII digest of cosmid pCM 1015 (Fleckenstein et al., Gene, 18:39, 1982) which contains ˜45 kb of the UL region of the CMV AD169 genome. The probe was α-[^32P]dCTP-labelled by random priming. Unincorporated isotope was removed from labelled probe using a G-50 spin column (Worthington Biochemicals). Membranes were hybridized, washed, and bound probe was detected by autoradiography."}, "[22]": {"system": "CMV pp65, 72 kD IE1, glycoprotein B (gB)", "assay": "Immunohistochemical staining of CMV proteins in infected HUVEC", "assay_type": "cell-based", "settings": "CMV VHL/E, 200 μM A771726 or 1 mM PFA", "description": "Slides were incubated in the presence of absence of the agents for various intervals, acetone-fixed, and stained by the immunoperoxidase method."}, "[23]": {"system": "rat CMV (RCMV RA67, Maastricht strain)", "assay": "Rat CMV infection of immunodeficient nude rats, tissue plaque assay", "assay_type": "in vivo", "settings": "RCMV i.p., leflunomide 15 mg/kg/day for 14 days, 14 days post-inoculation"}, "[24]": {"settings": "in vivo; cited from earlier work"}},
  "note": "Like-named read-outs stand apart in the source and are kept apart here.",
  "data": [
    {"compound": "Nc1ccn(C[C@@H](CO)OCP(=O)(O)O)c(=O)n1", "note": "[Cidofovir]", "values": [
      {"measurement": "neutropenia", "setting": "[1]; in vivo", "result": "approximately 10 % of recipients"}
    ]},
    {"compound": "Cc1nocc1C(=O)Nc1ccc(C(F)(F)F)cc1", "note": "[Compound 99-126, N-(4-trifluoromethylphenyl)-3-methylisoxazol-4-carboxamide]", "values": [
      {"measurement": "CPE Inhibition test SI", "setting": "[2]", "result": 0},
      {"measurement": "EC50", "setting": "[2]", "result": "> 200", "unit": "µM"},
      {"measurement": "Neutral Red Uptake test SI", "setting": "[3]", "result": 0},
      {"measurement": "CPE Inhibition test SI", "setting": "[4]", "result": 1},
      {"measurement": "Neutral Red Uptake test SI", "setting": "[5]", "result": 1.0},
      {"measurement": "EC50", "setting": "[6]", "result": 60, "unit": "µM"},
      {"measurement": "CPE Inhibition test SI", "setting": "[6]", "result": 1.2},
      {"measurement": "CPE Inhibition test SI", "setting": "[7]", "result": 6},
      {"measurement": "Neutral Red Uptake test SI", "setting": "[8]", "result": 2},
      {"measurement": "EC50", "setting": "[9]", "result": "> 100", "unit": "µM"},
      {"measurement": "EC90", "setting": "[9]; 2.2.15 cells", "result": "> 100", "unit": "µM"},
      {"measurement": "anti-viral effect on HBV (in words)", "setting": "[9]; summary of Table 2", "result": "some anti-viral effect"},
      {"measurement": "CC50", "setting": "[10]", "result": 110, "unit": "µM"},
      {"measurement": "CPE Inhibition test SI", "setting": "[11]", "result": 0},
      {"measurement": "Neutral Red Uptake test SI", "setting": "[12]", "result": 0},
      {"measurement": "CPE Inhibition test SI", "setting": "[13]", "result": 0},
      {"measurement": "Neutral Red Uptake test SI", "setting": "[14]", "result": 1},
      {"measurement": "Neutral Red Uptake test SI", "setting": "[15]", "result": 1.0},
      {"measurement": "CPE Inhibition test SI", "setting": "[16]", "result": "<3.2"},
      {"measurement": "EC50", "setting": "[16]", "result": "> 20", "unit": "µM"},
      {"measurement": "CPE Inhibition test SI", "setting": "[17]", "result": 0},
      {"measurement": "Neutral Red Uptake test SI", "setting": "[18]", "result": 1.0},
      {"measurement": "Neutral Red Uptake test SI", "setting": "[19]", "result": 0}
    ]},
    {"compound": "Cc1oncc1C(=O)Nc1cccc(C(F)(F)F)c1", "note": "[Compound 99-127, N-(3-trifluoromethylphenyl)-5-methylisoxazol-4-carboxamide]", "values": [
      {"measurement": "CPE Inhibition test SI", "setting": "[2]", "result": 0},
      {"measurement": "EC50", "setting": "[2]", "result": "> 200", "unit": "µM"},
      {"measurement": "Neutral Red Uptake test SI", "setting": "[5]", "result": 1.1},
      {"measurement": "EC50", "setting": "[6]", "result": "> 200", "unit": "µM"},
      {"measurement": "CPE Inhibition test SI", "setting": "[6]", "result": 0},
      {"measurement": "CPE Inhibition test SI", "setting": "[7]", "result": 0},
      {"measurement": "Neutral Red Uptake test SI", "setting": "[8]", "result": 0},
      {"measurement": "SI", "setting": "[9]; HBV, 2.2.15 cells", "result": 0.7},
      {"measurement": "EC50", "setting": "[9]", "result": 11, "unit": "µM"},
      {"measurement": "EC90", "setting": "[9]; 2.2.15 cells", "result": 96, "unit": "µM"},
      {"measurement": "CC50", "setting": "[10]", "result": 67, "unit": "µM"},
      {"measurement": "CPE Inhibition test SI", "setting": "[13]", "result": 0},
      {"measurement": "Neutral Red Uptake test SI", "setting": "[14]", "result": 0},
      {"measurement": "Neutral Red Uptake test SI", "setting": "[15]", "result": 1.0},
      {"measurement": "CPE Inhibition test SI", "setting": "[16]", "result": 0},
      {"measurement": "EC50", "setting": "[16]", "result": "> 200", "unit": "µM"},
      {"measurement": "CPE Inhibition test SI", "setting": "[17]", "result": 0},
      {"measurement": "Neutral Red Uptake test SI", "setting": "[18]", "result": 1.0},
      {"measurement": "Neutral Red Uptake test SI", "setting": "[19]", "result": 0}
    ]},
    {"compound": "Nc1ncnc2c1ncn2C[C@@H](CO)OCP(=O)(O)O", "note": "[HPMPA, reference compound]", "values": [
      {"measurement": "CPE Inhibition test SI", "setting": "[11]", "result": 8},
      {"measurement": "Neutral Red Uptake test SI", "setting": "[12]", "result": ">20"}
    ]},
    {"compound": "O=C([O-])P(=O)(O)O.[Na+]", "note": "[PFA, sodium phosphonoformate]", "values": [
      {"measurement": "CMV DNA polymerase activity", "setting": "[20]", "result": "complete inhibition at 1 mM"},
      {"measurement": "quantity of viral DNA synthesized", "setting": "[21]", "result": "no detectable CMV DNA"},
      {"measurement": "expression of CMV pp65 and IE1", "setting": "[22]; 24-48 hr pi", "result": "unimpeded"},
      {"measurement": "expression of CMV late structural glycoprotein B (gB)", "setting": "[22]; 96 hours pi", "result": "unable to express gB"},
      {"measurement": "frequency of each toxicity (renal dysfunction, hypomagnesemia, hypokalemia, hypocalcemia, seizures, fever, rash)", "setting": "[1]; intravenous foscarnet", "result": "more than 5% of recipients"}
    ]},
    {"compound": "Cc1oncc1C(=O)Nc1ccc(C(F)(F)F)cc1", "note": "[leflunomide, N-(4-trifluoromethylphenyl)-5-methylisoxazol-4-carboxamide]", "values": [
      {"measurement": "viral load in salivary glands, lungs and spleens", "setting": "[23]", "result": "significantly reduced viral load"},
      {"measurement": "toxicity in animal studies", "setting": "[24]", "result": "liver and cardiac toxicity"}
    ]},
    {"compound": "NC(=O)c1ncn([C@@H]2O[C@H](CO)[C@@H](O)[C@H]2O)n1", "note": "[ribavirin, reference compound]", "values": [
      {"measurement": "EC50", "setting": "[7]; Measles morbillivirus, CV-1 cells, read-out: CPE Inhibition test EC50", "result": 41, "unit": "µM"},
      {"measurement": "EC50", "setting": "[8]; Measles morbillivirus, CV-1 cells, read-out: Neutral Red Uptake test EC50", "result": 41, "unit": "µM"},
      {"measurement": "EC50", "setting": "[13]; MA104, MA-104 cells, read-out: CPE Inhibition test EC50", "result": 230, "unit": "µM"},
      {"measurement": "EC50", "setting": "[14]; MA104, MA-104 cells, read-out: Neutral Red Uptake test EC50", "result": 120, "unit": "µM"},
      {"measurement": "EC50", "setting": "[17]; human respiratory syncytial virus, MA104, MA-104 cells, read-out: CPE Inhibition test EC50", "result": 290, "unit": "µM"},
      {"measurement": "EC50", "setting": "[19]; human respiratory syncytial virus, MA104, MA-104 cells, read-out: Neutral Red Uptake test EC50", "result": 82, "unit": "µM"}
    ]},
    {"compound": "O=c1ccn([C@@H]2O[C@H](CO)[C@@H](O)[C@H]2O)c(=O)[nH]1", "note": "[uridine]", "values": [
      {"measurement": "EC50", "setting": "[9]", "result": "> 100", "unit": "µM"},
      {"measurement": "EC90", "setting": "[9]; 2.2.15 cells", "result": "> 100", "unit": "µM"},
      {"measurement": "CC50", "setting": "[10]", "result": "> 100", "unit": "µM"}
    ]}
  ]
}
